In patent US20230113847A1, “[…] IMMUNE RESPONSE WITH CUPROUS COMPLEXES” (C LAB PHARMA INTERNATIONAL, S.A., priority 2020, published 2023):

Legend:
[1] = stated in description, relevance to route of administration
Lymphocytes = details: Day 28, twice daily administration; otherwise healthy subjects with chronic pain
Protocol: (§1) Ethics: This study was reviewed by the Natural Health Products Directorate (NHPD), Health Canada and a research ethics board. This study was conducted in accordance with the principles established in the Declaration of Helsinki and its subsequent amendments. Informed consent was obtained from each subject at the screening visit prior to any study related activities. The clinical trial was conducted at KGK Synergize Inc. (London, ON, Canada).
(§2) Sample Collection: As depicted in FIG. 1, blood was collected from participants on the initial screening (Day −1), the first day of administering the treatment composition (Day 0), and on Day 28. Collected blood was analyzed to determine the complete blood count (CBC), electrolyte composition, and liver enzymes composition according to standardized procedures at LifeLabs (London, ON, Canada).
(§3) Dosing Regimen: Each participant was randomly assigned an identifier code and placed in either the Cunermuspir or placebo treatment groups at a 1:1 ratio. Participants were given 2 capsules on Day 0 and instructed to take the contents sublingually with a small meal. Starting on Day 1, participants were instructed to take one capsule orally in the morning with breakfast, and one capsule orally between lunch and dinner, with food, for a total of 2 capsules daily over the course of the study. Participants were instructed to take all capsules with adequate, but not excessive, amounts of liquid.

Neutrophils = details: Day 28, twice daily administration; otherwise healthy subjects with chronic pain
Protocol: as §1, §2, §3

[2] = system: Neutrophil to Lymphocyte Ratio; details: Day 28, twice daily administration
Protocol: as §1, §2, §3

neuromuscular pain = details: Day 28 in comparison to Day 0; subjects with neuromuscular pain; twice daily administration; placebo group showed upward trend
Excerpt: as §3

Compound	pH of the complex [1]	lymphocyte numbers relative to the placebo group (Lymphocytes)	neutrophil numbers relative to the placebo group (Neutrophils)	neutrophil to lymphocyte ratio relative to the placebo group [2]	SQIR scores in Symptom, Impact and Function Domains (neuromuscular pain)
NCC(=O)[O-].[Cu+] [Copper (I) glycinate, cuprous glycinate]	more neutral pH	–	–	–	–
O=C(O)c1cccnc1.[Cu+] [Cu(I)NA2, cuprous nicotinic acid]	acidic pH	significant increase	significant decrease	significant decrease	decreased scores
